What was measured:
human CCR6 = molecular target: T1, human CCR6 (Homo sapiens, UniProt P51684); assay: human CCR6 calcium flux activity (FLIPR, HEK293 cells stably expressing human CCR6, CCL20 stimulation); assay type: cell-based; settings: for IC50: HEK293 cells stably expressing human CCR6, EC80 human MIP-3 alpha/CCL20, read-out: CCR6 inhibitory activity, IC50; for CCR6 selectivity: ratio of CXCR2 IC50 to CCR6 IC50
T1 construct: expressed in transfected cells; host or cells: HEK293
T1 sequence (P51684 1-374): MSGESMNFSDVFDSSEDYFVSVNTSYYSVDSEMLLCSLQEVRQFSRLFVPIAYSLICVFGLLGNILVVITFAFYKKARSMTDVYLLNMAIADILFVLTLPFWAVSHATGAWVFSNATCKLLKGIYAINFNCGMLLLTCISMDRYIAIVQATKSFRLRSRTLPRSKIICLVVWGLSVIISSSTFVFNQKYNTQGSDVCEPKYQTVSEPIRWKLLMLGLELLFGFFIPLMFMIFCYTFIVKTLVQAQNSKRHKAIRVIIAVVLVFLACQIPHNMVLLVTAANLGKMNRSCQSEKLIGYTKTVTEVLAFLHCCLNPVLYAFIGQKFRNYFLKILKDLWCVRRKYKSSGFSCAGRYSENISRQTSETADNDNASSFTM
Summary of the method: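 Compounds preincubated with Fluo-4 Direct-loaded cells 50 min at 37 °C, then 10 min at room temperature, before CCL20 challenge at EC80. Fluorescence (ex 494/em 516 nm) recorded 90 s; max−min signal gives inhibition, four-parameter fit yields IC50.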

[1] = in vivo pharmacokinetic study in SD rats; settings: male, rat, plasma; for bioavailability: 1 mg/kg PO vs 1 mg/kg IV, read-out: Oral bioavailability F (%); for AUC(0-t) / Cmax / half-life: 1 mg/kg
Summary of the method: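 Male SD rats (180-200 g), 3 per route: single fasted oral gavage in 1% Tween 80 or tail-vein IV bolus in 50% PEG400. Orbital blood into EDTA-K2 sampled to 8 h; plasma analysed and PK parameters derived by non-compartmental analysis.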

Compound	IC50 (human CCR6) [µM]	CCR6 selectivity (human CCR6)	bioavailability [1] [%]	AUC(0-t) ([1]; IV) [µg·h/mL]	Cmax ([1]; IV) [µg/mL]	half-life ([1]; IV) [min]	AUC(0-t) ([1]; PO) [µg·h/mL]	Cmax ([1]; PO) [µg/mL]	half-life ([1]; PO) [min]
CN(C)C(=O)c1nccc(Nc2c(N[C@@H](C#CC3CCC3)[C@]3(C)CC(F)(F)CO3)c(=O)c2=O)c1O (single isomer, unassigned) [110A]	0.0093	32.0	68.6	0.58	1.86	19.2	0.397	0.311	55.8
CN(C)C(=O)c1nccc(Nc2c(N[C@@H](c3nc(Cl)ccc3F)[C@@]3(C)CC(F)(F)CO3)c(=O)c2=O)c1O [068B, 4-((2-(((S)-(6-chloro-3-fluoropyridin-2-yl)((R)-4,4-difluoro-2-methyltetrahydrofuran-2-yl)methyl)amino)-3,4-dioxocyclobut-1-en-1-yl)amino)-3-hydroxy-N,N-dimethylpicolinamide]	0.0053	1440.2	23.4	1.27	3.63	15	0.298	0.291	91.8
Cc1cc(F)cnc1[C@H](Nc1c(Nc2ccnc(C(=O)N(C)C)c2O)c(=O)c1=O)[C@]1(C)CC(F)(F)CO1 [093A, 4-((2-(((S)-((S)-4,4-difluoro-2-methyltetrahydrofuran-2-yl)(5-fluoro-3-methylpyridin-2-yl)methyl)amino)-3,4-dioxocyclobut-1-en-1-yl)amino)-3-hydroxy-N,N-dimethylpicolinamide]	0.0171	> 5848.0	23.7	1.25	4.84	14.4	0.295	0.271	66
CN(C)C(=O)c1nccc(Nc2c(N[C@@H](c3cccc(Cl)n3)C3(C)CCCC3)c(=O)c2=O)c1O [compound 003, (R)-4-((2-(((6-chloropyridin-2-yl)(1-methylcyclopentyl)methyl)amino)-3,4-dioxocyclobut-1-en-1-yl)amino)-3-hydroxy-N,N-dimethylpicolinamide]	0.0221	100.0	–	–	–	–	–	–	–
CN(C)C(=O)c1nccc(Nc2c(N[C@@H](c3ccc(F)cn3)C3(C)CCCC3)c(=O)c2=O)c1O [compound 005, (R)-4-((2-(((5-fluoropyridin-2-yl)(1-methylcyclopentyl)methyl)amino)-3,4-dioxocyclobut-1-en-1-yl)amino)-3-hydroxy-N,N-dimethylpicolinamide]	0.0109	115.0	–	–	–	–	–	–	–
CN(C)C(=O)c1nccc(Nc2c(N[C@@H](c3ncc(F)cc3F)C3(C)CCCC3)c(=O)c2=O)c1O [compound 009, (R)-4-((2-(((3,5-difluoropyridin-2-yl)(1-methylcyclopentyl)methyl)amino)-3,4-dioxocyclobut-1-en-1-yl)amino)-3-hydroxy-N,N-dimethylpicolinamide]	0.008	303.4	–	–	–	–	–	–	–
Cc1cccnc1[C@H](Nc1c(Nc2ccc(Cl)c(C(=O)N(C)C)c2O)c(=O)c1=O)C1(C)CCCC1 [compound 063, (R)-6-chloro-2-hydroxy-N,N-dimethyl-3-((2-(((1-methylcyclopentyl)(3-methylpyridin-2-yl)methyl)amino)-3,4-dioxocyclobut-1-en-1-yl)amino)benzamide]	0.0117	1310.8	–	–	–	–	–	–	–
CN(C)C(=O)c1nccc(Nc2c(N[C@@H](c3cccc(CF)n3)C3(C)CCCC3)c(=O)c2=O)c1O [compound 108, (R)-4-((2-(((6-(fluoromethyl)pyridin-2-yl)(1-methylcyclopentyl)methyl)amino)-3,4-dioxocyclobut-1-en-1-yl)amino)-3-hydroxy-N,N-dimethylpicolinamide]	0.0039	189.6	–	–	–	–	–	–	–
CC#C[C@H](Nc1c(Nc2ccnc(C(=O)N(C)C)c2O)c(=O)c1=O)C1(C)CCCC1 [compound 113, (R)-3-hydroxy-N, N-dimethyl-4-((2-((1-(1-methylcyclopentyl)but-2-yn-1-yl)amino)-3,4-dioxocyclobut-1-en-1-yl)amino)picolinamide]	0.0498	29.7	–	–	–	–	–	–	–
CC#C[C@H](Nc1c(Nc2ccc(Cl)c(C(=O)N(C)C)c2O)c(=O)c1=O)C1(C)CCCC1 [compound 114, (R)-6-chloro-2-hydroxy-N, N-dimethyl-3-((2-((1-(1-methylcyclopentyl)but-2-yn-1-yl)amino)-3,4-dioxocyclobut-1-en-1-yl)amino)benzamide]	0.0553	26.2	–	–	–	–	–	–	–
CN(C)C(=O)c1nccc(Nc2c(N[C@@H](C#CC3CC3)C3(C)CCCC3)c(=O)c2=O)c1O [compound 115, (R)-4-((2-((3-cyclopropyl-1-(1-methylcyclopentyl)prop-2-yn-1-yl)amino)-3,4-dioxocyclobut-1-en-1-yl)amino)-3-hydroxy-N,N-dimethylpicolinamide]	0.0476	11.1	–	–	–	–	–	–	–
